Experiments:
[1] = system: Tyrosine-protein kinase ABL1 (Homo sapiens), P00519 [F317L]; conditions: Compound concentration 1000.0 nM
[2] = biological target: Cyclin-dependent kinase-like 5 (Homo sapiens) (UniProt O76039); conditions: Compound concentration 1000.0 nM
[3] = biological target: Serine/threonine-protein kinase WNK1 (Homo sapiens) (UniProt Q9H4A3); conditions: Compound concentration 1000.0 nM
[4] = biological target: Tyrosine-protein kinase JAK2 (Homo sapiens) (UniProt O60674); conditions: Compound concentration 1000.0 nM
[5] = biological target: Calcium-dependent protein kinase 1 (Plasmodium falciparum) (UniProt P62344); conditions: Compound concentration 1000.0 nM
Sequence of Calcium-dependent protein kinase 1 (Plasmodium falciparum) (P62344 2-524 limits assumed): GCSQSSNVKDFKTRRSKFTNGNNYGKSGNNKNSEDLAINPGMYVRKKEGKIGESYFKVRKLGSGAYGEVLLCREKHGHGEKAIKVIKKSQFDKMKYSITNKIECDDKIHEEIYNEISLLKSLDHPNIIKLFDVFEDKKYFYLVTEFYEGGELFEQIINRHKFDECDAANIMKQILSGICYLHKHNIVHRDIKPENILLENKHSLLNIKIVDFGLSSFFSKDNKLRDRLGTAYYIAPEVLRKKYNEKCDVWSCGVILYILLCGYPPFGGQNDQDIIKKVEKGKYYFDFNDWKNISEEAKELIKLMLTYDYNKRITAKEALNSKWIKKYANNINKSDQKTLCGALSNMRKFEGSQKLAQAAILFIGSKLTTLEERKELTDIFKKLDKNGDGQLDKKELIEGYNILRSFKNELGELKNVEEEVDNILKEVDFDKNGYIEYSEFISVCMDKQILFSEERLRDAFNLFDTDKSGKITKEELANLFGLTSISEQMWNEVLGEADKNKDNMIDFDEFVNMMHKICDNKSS

[6] = biological target: Mitogen-activated protein kinase 8 (Homo sapiens) (UniProt P45983); conditions: Compound concentration 1000.0 nM
[7] = biological target: Calcium/calmodulin-dependent protein kinase kinase 1 (Homo sapiens) (UniProt Q8N5S9); conditions: Compound concentration 1000.0 nM
[8] = biological target: Receptor-interacting serine/threonine-protein kinase 2 (Homo sapiens) (UniProt O43353); conditions: Compound concentration 1000.0 nM
[9] = biological target: Casein kinase II subunit alpha' (Homo sapiens) (UniProt P19784); conditions: Compound concentration 1000.0 nM
[10] = biological target: RAC-alpha serine/threonine-protein kinase (Homo sapiens) (UniProt P31749); conditions: Compound concentration 1000.0 nM
[11] = biological target: Fibroblast growth factor receptor 4 (Homo sapiens) (UniProt P22455); conditions: Compound concentration 1000.0 nM
[12] = biological target: 1-phosphatidylinositol 3-phosphate 5-kinase (Homo sapiens) (UniProt Q9Y2I7); conditions: Compound concentration 1000.0 nM
[13] = biological target: 5-hydroxytryptamine receptor 7 (Homo sapiens) (UniProt P34969); conditions: Compound concentration 10.0 uM
[14] = biological target: Serine/threonine-protein kinase 32A (Homo sapiens) (UniProt Q8WU08); conditions: Compound concentration 1000.0 nM
[15] = biological target: Calcium/calmodulin-dependent protein kinase type 1G (Homo sapiens) (UniProt Q96NX5); conditions: Compound concentration 1000.0 nM
[16] = biological target: Mitogen-activated protein kinase kinase kinase 12 (Homo sapiens) (UniProt Q12852); conditions: Compound concentration 1000.0 nM
[17] = biological target: Macrophage colony-stimulating factor 1 receptor (Homo sapiens) (UniProt P07333); conditions: Compound concentration 1000.0 nM
[18] = biological target: Eukaryotic translation initiation factor 2-alpha kinase 1 (Homo sapiens) (UniProt Q9BQI3); conditions: Compound concentration 1000.0 nM
[19] = system: Tyrosine-protein kinase ABL1 (Homo sapiens), P00519 [F317I]; conditions: Compound concentration 1000.0 nM
[20] = biological target: Calcium/calmodulin-dependent protein kinase type 1D (Homo sapiens) (UniProt Q8IU85); conditions: Compound concentration 1000.0 nM
[21] = biological target: Tyrosine-protein kinase Srms (Homo sapiens) (UniProt Q9H3Y6); conditions: Compound concentration 1000.0 nM
Sequence of Tyrosine-protein kinase Srms (Homo sapiens) (Q9H3Y6 whole entry): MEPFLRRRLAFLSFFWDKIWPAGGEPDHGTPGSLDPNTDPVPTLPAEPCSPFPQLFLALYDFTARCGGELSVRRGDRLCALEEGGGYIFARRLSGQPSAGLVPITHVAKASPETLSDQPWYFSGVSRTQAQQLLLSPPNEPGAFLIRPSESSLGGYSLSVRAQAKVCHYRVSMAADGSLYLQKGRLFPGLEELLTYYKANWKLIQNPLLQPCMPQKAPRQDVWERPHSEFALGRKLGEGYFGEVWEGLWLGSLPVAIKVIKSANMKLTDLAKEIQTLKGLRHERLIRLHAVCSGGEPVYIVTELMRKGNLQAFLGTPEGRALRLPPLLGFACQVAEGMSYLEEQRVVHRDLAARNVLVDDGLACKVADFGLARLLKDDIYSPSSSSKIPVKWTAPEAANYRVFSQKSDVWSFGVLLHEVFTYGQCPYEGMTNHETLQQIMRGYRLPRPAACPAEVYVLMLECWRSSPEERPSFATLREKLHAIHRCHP

[22] = biological target: BMP-2-inducible protein kinase (Homo sapiens) (UniProt Q9NSY1); conditions: Compound concentration 1000.0 nM
[23] = biological target: Rho-associated protein kinase 2 (Homo sapiens) (UniProt O75116); conditions: Compound concentration 1000.0 nM
[24] = biological target: LIM domain kinase 1 (Homo sapiens) (UniProt P53667); conditions: Compound concentration 1000.0 nM
Sequence of LIM domain kinase 1 (Homo sapiens) (P53667 whole entry, looked up, the tested form may be a part): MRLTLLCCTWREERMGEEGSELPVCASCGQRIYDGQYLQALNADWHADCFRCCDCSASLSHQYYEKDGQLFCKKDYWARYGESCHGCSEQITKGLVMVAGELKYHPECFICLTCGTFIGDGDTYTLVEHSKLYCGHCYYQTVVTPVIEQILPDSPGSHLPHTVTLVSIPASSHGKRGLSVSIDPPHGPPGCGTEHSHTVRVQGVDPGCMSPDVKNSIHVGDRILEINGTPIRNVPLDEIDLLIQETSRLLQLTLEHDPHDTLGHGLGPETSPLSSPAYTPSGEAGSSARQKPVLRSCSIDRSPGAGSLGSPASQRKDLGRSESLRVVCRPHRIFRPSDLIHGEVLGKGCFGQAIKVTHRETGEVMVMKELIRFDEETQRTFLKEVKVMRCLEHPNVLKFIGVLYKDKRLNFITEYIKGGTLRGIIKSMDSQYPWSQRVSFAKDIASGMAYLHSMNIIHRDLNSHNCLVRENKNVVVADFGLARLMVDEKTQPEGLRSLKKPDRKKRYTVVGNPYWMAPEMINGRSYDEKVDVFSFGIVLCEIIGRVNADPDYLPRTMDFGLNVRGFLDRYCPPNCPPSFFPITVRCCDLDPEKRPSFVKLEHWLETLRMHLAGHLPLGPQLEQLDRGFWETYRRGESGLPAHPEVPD

[25] = system: eIF-2-alpha kinase GCN2 (Homo sapiens), Q9P2K8 [S808G]; conditions: Compound concentration 1000.0 nM
[26] = biological target: Dual serine/threonine and tyrosine protein kinase (Homo sapiens) (UniProt Q6XUX3); conditions: Compound concentration 1000.0 nM
[27] = system: Phosphatidylinositol 4,5-bisphosphate 3-kinase catalytic subunit alpha isoform (Homo sapiens), P42336 [E542K]; conditions: Compound concentration 1000.0 nM
[28] = biological target: Glycogen synthase kinase-3 alpha (Homo sapiens) (UniProt P49840); conditions: Compound concentration 1000.0 nM
Sequence of Glycogen synthase kinase-3 alpha (Homo sapiens) (P49840 2-483 limits assumed): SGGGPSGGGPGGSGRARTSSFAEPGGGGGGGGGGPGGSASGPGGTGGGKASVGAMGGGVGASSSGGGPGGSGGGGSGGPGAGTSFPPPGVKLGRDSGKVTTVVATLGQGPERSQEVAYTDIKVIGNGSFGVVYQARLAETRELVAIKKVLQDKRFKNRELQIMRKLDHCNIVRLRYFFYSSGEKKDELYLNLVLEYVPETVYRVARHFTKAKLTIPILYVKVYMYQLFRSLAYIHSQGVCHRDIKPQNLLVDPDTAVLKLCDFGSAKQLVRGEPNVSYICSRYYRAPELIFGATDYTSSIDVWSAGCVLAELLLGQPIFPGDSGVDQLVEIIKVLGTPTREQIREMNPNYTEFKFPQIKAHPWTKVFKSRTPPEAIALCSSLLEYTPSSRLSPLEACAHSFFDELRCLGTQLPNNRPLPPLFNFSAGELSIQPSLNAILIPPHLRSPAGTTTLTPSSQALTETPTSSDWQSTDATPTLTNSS

[29] = biological target: Aurora kinase C (Homo sapiens) (UniProt Q9UQB9); conditions: Compound concentration 1000.0 nM
[30] = biological target: Mitogen-activated protein kinase kinase kinase 2 (Homo sapiens) (UniProt Q9Y2U5); conditions: Compound concentration 1000.0 nM
Sequence of Mitogen-activated protein kinase kinase kinase 2 (Homo sapiens) (Q9Y2U5 whole entry): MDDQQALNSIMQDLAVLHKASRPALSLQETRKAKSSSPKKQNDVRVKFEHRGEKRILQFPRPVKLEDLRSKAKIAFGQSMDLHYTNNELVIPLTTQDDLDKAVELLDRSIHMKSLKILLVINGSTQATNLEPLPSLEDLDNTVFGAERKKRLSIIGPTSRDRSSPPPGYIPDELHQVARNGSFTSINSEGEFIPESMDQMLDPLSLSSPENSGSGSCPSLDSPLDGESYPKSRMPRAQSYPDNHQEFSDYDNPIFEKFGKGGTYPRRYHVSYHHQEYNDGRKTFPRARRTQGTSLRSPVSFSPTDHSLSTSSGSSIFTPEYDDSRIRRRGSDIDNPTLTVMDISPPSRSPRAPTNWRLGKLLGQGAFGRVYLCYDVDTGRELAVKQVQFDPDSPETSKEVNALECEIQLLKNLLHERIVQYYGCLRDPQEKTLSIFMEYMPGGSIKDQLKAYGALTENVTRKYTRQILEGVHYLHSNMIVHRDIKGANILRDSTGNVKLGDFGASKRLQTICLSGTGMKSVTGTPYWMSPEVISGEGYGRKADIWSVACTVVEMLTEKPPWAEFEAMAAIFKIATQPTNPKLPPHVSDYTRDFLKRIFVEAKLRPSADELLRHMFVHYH

[31] = biological target: Mitogen-activated protein kinase 1 (Homo sapiens) (UniProt P28482); conditions: Compound concentration 1000.0 nM
[32] = system: Receptor-type tyrosine-protein kinase FLT3 (Homo sapiens), P36888 [D835V]; conditions: Compound concentration 1000.0 nM
[33] = biological target: Activated CDC42 kinase 1 (Homo sapiens) (UniProt Q07912); conditions: Compound concentration 1000.0 nM
Sequence of Activated CDC42 kinase 1 (Homo sapiens) (Q07912 whole entry, looked up): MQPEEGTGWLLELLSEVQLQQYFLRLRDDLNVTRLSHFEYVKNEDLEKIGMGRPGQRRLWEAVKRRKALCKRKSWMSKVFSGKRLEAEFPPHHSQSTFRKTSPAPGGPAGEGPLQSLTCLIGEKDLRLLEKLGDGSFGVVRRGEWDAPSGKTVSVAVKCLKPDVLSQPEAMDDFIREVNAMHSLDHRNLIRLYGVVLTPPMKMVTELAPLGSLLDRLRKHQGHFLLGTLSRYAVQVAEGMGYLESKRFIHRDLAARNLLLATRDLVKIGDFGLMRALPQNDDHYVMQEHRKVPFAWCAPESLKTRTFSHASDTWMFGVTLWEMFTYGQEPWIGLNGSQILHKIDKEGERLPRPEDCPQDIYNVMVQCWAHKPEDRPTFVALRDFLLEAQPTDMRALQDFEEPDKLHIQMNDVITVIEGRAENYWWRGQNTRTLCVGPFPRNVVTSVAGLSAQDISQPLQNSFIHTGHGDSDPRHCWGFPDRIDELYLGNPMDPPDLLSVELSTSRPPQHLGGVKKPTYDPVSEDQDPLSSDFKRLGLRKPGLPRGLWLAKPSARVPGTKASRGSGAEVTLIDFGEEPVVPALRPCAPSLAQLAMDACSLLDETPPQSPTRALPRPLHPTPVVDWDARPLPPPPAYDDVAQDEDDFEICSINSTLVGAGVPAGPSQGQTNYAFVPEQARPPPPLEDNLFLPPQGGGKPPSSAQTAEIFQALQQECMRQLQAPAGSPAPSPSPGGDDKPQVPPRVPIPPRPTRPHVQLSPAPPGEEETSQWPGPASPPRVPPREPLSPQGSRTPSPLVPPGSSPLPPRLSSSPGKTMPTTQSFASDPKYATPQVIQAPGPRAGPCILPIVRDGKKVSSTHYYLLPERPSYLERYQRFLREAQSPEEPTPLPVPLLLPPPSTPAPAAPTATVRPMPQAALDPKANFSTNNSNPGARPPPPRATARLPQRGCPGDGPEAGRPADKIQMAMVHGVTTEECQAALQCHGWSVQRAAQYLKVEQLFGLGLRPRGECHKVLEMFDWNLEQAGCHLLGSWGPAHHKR

[34] = biological target: Mitogen-activated protein kinase kinase kinase 3 (Homo sapiens) (UniProt Q99759); conditions: Compound concentration 1000.0 nM
[35] = biological target: Ephrin type-A receptor 7 (Homo sapiens) (UniProt Q15375); conditions: Compound concentration 1000.0 nM
[36] = biological target: Ribosomal protein S6 kinase alpha-3 (Homo sapiens) (UniProt P51812); conditions: Compound concentration 1000.0 nM
[37] = biological target: Calcium/calmodulin-dependent protein kinase type II subunit alpha (Homo sapiens) (UniProt Q9UQM7); conditions: Compound concentration 1000.0 nM
[38] = biological target: Membrane-associated tyrosine- and threonine-specific cdc2-inhibitory kinase (Homo sapiens) (UniProt Q99640); conditions: Compound concentration 1000.0 nM
[39] = biological target: Serine/threonine-protein kinase ULK2 (Homo sapiens) (UniProt Q8IYT8); conditions: Compound concentration 1000.0 nM
[40] = biological target: Serine/threonine-protein kinase 26 (Homo sapiens) (UniProt Q9P289); conditions: Compound concentration 1000.0 nM
[41] = biological target: Misshapen-like kinase 1 (Homo sapiens) (UniProt Q8N4C8); conditions: Compound concentration 1000.0 nM
[42] = biological target: Serine/threonine-protein kinase Nek3 (Homo sapiens) (UniProt P51956); conditions: Compound concentration 1000.0 nM
[43] = system: Mast/stem cell growth factor receptor Kit (Homo sapiens), P10721 [A829P]; conditions: Compound concentration 1000.0 nM
[44] = biological target: Tyrosine-protein kinase receptor TYRO3 (Homo sapiens) (UniProt Q06418); conditions: Compound concentration 1000.0 nM
[45] = biological target: Serine/threonine-protein kinase WNK4 (Homo sapiens) (UniProt Q96J92); conditions: Compound concentration 1000.0 nM
Sequence of Serine/threonine-protein kinase WNK4 (Homo sapiens) (Q96J92 whole entry): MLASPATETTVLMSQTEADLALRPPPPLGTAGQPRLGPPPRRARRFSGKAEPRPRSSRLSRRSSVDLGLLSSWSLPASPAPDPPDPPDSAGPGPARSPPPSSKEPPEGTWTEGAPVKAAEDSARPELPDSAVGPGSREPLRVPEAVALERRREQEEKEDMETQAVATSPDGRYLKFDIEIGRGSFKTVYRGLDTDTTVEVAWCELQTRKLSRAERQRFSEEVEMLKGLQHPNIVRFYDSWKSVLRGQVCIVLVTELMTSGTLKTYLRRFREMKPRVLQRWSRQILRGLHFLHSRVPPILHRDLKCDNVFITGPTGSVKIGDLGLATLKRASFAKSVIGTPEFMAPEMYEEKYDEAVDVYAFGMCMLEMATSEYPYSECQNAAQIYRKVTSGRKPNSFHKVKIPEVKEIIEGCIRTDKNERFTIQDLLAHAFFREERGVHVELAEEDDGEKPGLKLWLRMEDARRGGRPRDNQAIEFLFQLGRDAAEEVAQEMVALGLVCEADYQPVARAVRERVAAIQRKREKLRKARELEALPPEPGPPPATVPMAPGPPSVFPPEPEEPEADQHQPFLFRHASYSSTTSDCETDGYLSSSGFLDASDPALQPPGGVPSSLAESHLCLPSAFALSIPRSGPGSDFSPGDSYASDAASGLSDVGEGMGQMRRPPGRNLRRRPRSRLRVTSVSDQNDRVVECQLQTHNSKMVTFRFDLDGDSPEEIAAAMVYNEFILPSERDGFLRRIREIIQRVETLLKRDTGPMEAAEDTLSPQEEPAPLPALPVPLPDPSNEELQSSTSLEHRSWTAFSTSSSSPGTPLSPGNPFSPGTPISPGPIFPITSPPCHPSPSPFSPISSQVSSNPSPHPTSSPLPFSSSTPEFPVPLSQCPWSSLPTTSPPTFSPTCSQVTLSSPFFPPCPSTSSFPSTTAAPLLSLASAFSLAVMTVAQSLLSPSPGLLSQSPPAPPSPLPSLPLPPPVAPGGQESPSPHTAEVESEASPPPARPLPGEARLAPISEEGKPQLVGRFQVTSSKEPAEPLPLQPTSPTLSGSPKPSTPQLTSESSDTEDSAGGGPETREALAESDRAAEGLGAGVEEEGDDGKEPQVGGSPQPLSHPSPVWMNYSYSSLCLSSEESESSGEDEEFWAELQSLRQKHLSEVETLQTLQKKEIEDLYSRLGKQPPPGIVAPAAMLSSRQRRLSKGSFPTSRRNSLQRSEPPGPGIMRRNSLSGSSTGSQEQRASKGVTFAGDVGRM

O=C(NCc1ncc(C(F)(F)F)cc1Cl)c1ccc2c(c1)C1(CCS(=O)(=O)CC1)[C@H](C1CC1)N2S(=O)(=O)c1ccc(F)cc1 [BAY-784]
inactive: residual activity [1] 74% | residual activity [2] 78% | residual activity [3] 90% | residual activity [4] 80% | residual activity [5] 85% | residual activity [6] 87% | residual activity [7] 100% | residual activity [8] 100% | residual activity [9] 100% | residual activity [10] 96% | residual activity [11] 100% | residual activity [12] 84% | inhibition [13] -8.16% | residual activity [14] 100% | residual activity [15] 98% | residual activity [16] 82% | residual activity [17] 100% | residual activity [18] 86% | residual activity [19] 83% | residual activity [20] 85% | residual activity [21] 71% | residual activity [22] 96% | residual activity [23] 95% | residual activity [24] 100% | residual activity [25] 88% | residual activity [26] 76% | residual activity [27] 94% | residual activity [28] 100% | residual activity [29] 82% | residual activity [30] 66% | residual activity [31] 81% | residual activity [32] 70% | residual activity [33] 85% | residual activity [34] 74% | residual activity [35] 100% | residual activity [36] 70% | residual activity [37] 94% | residual activity [38] 100% | residual activity [39] 58% | residual activity [40] 100% | residual activity [41] 90% | residual activity [42] 100% | residual activity [43] 92% | residual activity [44] 100% | residual activity [45] 91%

O=C(NCc1ncc(C(F)(F)F)cc1Cl)c1ccc2c(c1)C1(CCS(=O)(=O)CC1)[C@@H](C1CC1)N2S(=O)(=O)c1ccc(F)cc1 [BAY-786]
inactive: residual activity [1] 68% | residual activity [2] 67% | residual activity [3] 79% | residual activity [4] 70% | residual activity [5] 100% | residual activity [6] 55% | residual activity [7] 72% | residual activity [8] 100% | residual activity [9] 72% | residual activity [10] 94% | residual activity [11] 100% | residual activity [12] 73% | inhibition [13] -4.83% | residual activity [14] 99% | residual activity [15] 100% | residual activity [16] 87% | residual activity [17] 87% | residual activity [18] 94% | residual activity [19] 80% | residual activity [20] 99% | residual activity [21] 60% | residual activity [22] 76% | residual activity [23] 93% | residual activity [24] 91% | residual activity [25] 100% | residual activity [26] 78% | residual activity [27] 82% | residual activity [28] 100% | residual activity [29] 80% | residual activity [30] 88% | residual activity [31] 83% | residual activity [32] 76% | residual activity [33] 84% | residual activity [34] 60% | residual activity [35] 100% | residual activity [36] 57% | residual activity [37] 90% | residual activity [38] 92% | residual activity [39] 54% | residual activity [40] 82% | residual activity [41] 85% | residual activity [42] 100% | residual activity [43] 67% | residual activity [44] 84% | residual activity [45] 100%

— ChEMBL document CHEMBL4507266, “Data for DCP probe BAY-784” (2021)
